According to ChEMBL document CHEMBL4840343, “Fragment-based lead discovery of indazole-based compounds as AXL kinase inhibitors” (Bioorg Med Chem, 2021):
Values after ≈ are worked out from the molar mass of the structure shown. Blank lines part the entries; values can stand above or below the molecule they belong to. Active and inactive are the calls of the source. The calls are words filed in the database; no cut-off is given here.

Key:
[1] = target: T1, Tyrosine-protein kinase receptor UFO (Homo sapiens, UniProt P30530); assay: Inhibition of Axl (unknown origin) using 5'FAM labeled KKKKEEIYFFF-NH2 peptide as substrate incubated for 1.5 hrs
T1 sequence (P30530 whole entry): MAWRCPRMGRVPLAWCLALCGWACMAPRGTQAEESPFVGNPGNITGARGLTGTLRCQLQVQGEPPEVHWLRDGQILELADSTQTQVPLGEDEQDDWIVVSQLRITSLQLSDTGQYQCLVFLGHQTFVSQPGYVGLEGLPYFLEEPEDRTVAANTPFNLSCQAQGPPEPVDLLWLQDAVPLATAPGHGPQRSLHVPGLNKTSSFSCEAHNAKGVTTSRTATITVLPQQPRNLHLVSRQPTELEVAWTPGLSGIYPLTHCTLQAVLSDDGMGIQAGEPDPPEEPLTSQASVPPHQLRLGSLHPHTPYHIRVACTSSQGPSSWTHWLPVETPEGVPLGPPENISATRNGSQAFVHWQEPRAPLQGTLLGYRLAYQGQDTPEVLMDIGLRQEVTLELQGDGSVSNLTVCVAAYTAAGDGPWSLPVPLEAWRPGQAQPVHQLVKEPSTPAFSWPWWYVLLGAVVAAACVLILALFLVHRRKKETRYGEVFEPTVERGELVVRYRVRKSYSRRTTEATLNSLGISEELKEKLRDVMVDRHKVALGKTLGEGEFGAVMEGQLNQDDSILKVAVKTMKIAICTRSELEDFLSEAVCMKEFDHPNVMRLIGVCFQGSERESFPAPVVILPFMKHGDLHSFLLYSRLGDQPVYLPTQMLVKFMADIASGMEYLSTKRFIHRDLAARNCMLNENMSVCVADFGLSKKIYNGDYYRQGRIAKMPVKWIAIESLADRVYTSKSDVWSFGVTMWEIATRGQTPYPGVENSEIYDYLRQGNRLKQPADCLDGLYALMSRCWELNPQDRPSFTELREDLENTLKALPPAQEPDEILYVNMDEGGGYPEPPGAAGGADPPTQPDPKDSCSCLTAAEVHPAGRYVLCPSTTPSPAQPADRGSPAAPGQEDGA

SK-OV-3 = assay: Antiproliferative activity against human SK-OV-3 cells as reduction in cell growth measured after 72 hrs by Celltiter-Glo luminescent assay; assay type: functional
[2] = target: T1, Tyrosine-protein kinase receptor UFO; assay: Displacement of K5 tracer from Axl (unknown origin) expressed in human HEK293 cells cotransfected with NanoLuc measured after 2 hrs by NanoBRET assay; assay type: cell-based
[3] = Permeability across apical to basolateral side in human Caco-2 cells; assay type: ADME, cell-based; conditions: read-out: permeability
[4] = Half life in mouse at 5 mg/kg, po; assay type: ADME, organism-based; conditions: in vivo
[5] = Distribution coefficient, logD of compound at pH 7.4; assay type: physicochemical; conditions: octanol/water
[6] = Intrinsic clearance in human liver microsomes; assay type: ADME, Microsome; conditions: read-out: CLH
[7] = Intrinsic clearance in mouse liver microsomes; assay type: ADME, Microsome; conditions: read-out: CLH
[8] = Thermodynamic solubility of compound at pH 7.4; assay type: physicochemical; conditions: buffer, read-out: Therm_solubility
[9] = Cmax in mouse at 5 mg/kg, po; assay type: ADME, organism-based; set-up: route oral, dose 5 mg/kg; conditions: in vivo
[10] = Permeability across basolateral to apical side in human Caco-2 cells; assay type: ADME, cell-based; conditions: read-out: permeability
[11] = Tmax in mouse at 5 mg/kg, po; assay type: ADME, organism-based; conditions: in vivo
[12] = AUC (0 to infinity) in mouse at 5 mg/kg, po; assay type: ADME, organism-based; set-up: route oral, time infinity, dose 5 mg/kg; conditions: in vivo
[13] = Efflux ratio of permeability in human Caco-2 cells; assay type: ADME, cell-based
[14] = target: Receptor-type tyrosine-protein kinase FLT3 (Homo sapiens) (UniProt P36888); assay: Inhibition of FLT3 (unknown origin)
Receptor-type tyrosine-protein kinase FLT3 (Homo sapiens), sequence (P36888 whole entry): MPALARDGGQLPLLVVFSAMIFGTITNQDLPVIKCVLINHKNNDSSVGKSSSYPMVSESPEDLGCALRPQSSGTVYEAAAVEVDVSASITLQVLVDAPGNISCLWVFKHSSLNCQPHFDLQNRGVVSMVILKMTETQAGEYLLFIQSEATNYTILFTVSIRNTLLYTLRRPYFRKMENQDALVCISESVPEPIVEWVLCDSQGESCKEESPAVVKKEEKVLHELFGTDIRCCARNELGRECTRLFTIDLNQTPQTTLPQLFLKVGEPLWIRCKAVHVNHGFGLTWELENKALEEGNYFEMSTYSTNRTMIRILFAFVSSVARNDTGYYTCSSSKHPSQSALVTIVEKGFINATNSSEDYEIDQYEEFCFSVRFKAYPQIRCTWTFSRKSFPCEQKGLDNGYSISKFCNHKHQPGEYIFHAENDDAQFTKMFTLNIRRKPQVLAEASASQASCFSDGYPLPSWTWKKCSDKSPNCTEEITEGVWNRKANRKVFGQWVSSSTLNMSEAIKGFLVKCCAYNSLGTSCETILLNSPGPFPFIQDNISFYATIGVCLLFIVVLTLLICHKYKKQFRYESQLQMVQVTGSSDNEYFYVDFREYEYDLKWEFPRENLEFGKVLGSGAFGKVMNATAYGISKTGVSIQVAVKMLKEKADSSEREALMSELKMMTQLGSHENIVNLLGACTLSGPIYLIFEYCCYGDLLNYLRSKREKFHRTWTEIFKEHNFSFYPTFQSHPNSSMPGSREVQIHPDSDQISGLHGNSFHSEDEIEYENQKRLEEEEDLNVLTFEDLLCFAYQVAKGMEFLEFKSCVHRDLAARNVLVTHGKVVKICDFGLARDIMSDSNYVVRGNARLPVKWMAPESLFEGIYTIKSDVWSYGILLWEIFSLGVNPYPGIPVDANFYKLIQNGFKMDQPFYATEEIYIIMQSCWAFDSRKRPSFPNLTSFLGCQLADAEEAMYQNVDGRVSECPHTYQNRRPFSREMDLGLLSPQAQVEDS

[15] = target: MAP kinase-interacting serine/threonine-protein kinase 2 (Homo sapiens) (UniProt Q9HBH9); assay: Inhibition of MKNK2 (unknown origin)
MAP kinase-interacting serine/threonine-protein kinase 2 (Homo sapiens), sequence (Q9HBH9 whole entry, looked up): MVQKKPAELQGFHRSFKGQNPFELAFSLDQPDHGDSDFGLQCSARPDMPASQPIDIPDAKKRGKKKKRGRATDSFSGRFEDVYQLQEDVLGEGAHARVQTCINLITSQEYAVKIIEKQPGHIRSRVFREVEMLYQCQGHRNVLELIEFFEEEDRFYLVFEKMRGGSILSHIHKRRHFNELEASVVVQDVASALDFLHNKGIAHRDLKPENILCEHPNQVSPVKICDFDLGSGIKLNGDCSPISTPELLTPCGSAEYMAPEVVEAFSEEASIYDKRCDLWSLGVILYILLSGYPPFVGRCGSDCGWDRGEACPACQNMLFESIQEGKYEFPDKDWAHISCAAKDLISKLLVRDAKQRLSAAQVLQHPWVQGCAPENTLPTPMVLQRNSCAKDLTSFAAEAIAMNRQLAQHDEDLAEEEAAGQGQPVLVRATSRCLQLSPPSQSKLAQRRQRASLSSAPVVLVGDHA

[16] = target: Tyrosine-protein kinase receptor UFO (Homo sapiens) (UniProt P30530); assay: Inhibition of Axl in human SK-OV-3 cells assessed as reduction in phosphorylated ERK1/2 level at 1 to 10 uM measured after 1 hr by Western blot analysis; assay type: cell-based; conditions: dose 1-10 µM
[17] = target: Tyrosine-protein kinase receptor UFO (Homo sapiens) (UniProt P30530); assay: Inhibition of Axl in human SK-OV-3 cells assessed as reduction in phosphorylated Axl level measured after 1 hr by Western blot analysis; assay type: cell-based; conditions: dose 1-10 µM
[18] = target: Proto-oncogene tyrosine-protein kinase receptor Ret (Homo sapiens) (UniProt P07949); assay: Inhibition of RET (unknown origin)
Proto-oncogene tyrosine-protein kinase receptor Ret (Homo sapiens), sequence (P07949 whole entry): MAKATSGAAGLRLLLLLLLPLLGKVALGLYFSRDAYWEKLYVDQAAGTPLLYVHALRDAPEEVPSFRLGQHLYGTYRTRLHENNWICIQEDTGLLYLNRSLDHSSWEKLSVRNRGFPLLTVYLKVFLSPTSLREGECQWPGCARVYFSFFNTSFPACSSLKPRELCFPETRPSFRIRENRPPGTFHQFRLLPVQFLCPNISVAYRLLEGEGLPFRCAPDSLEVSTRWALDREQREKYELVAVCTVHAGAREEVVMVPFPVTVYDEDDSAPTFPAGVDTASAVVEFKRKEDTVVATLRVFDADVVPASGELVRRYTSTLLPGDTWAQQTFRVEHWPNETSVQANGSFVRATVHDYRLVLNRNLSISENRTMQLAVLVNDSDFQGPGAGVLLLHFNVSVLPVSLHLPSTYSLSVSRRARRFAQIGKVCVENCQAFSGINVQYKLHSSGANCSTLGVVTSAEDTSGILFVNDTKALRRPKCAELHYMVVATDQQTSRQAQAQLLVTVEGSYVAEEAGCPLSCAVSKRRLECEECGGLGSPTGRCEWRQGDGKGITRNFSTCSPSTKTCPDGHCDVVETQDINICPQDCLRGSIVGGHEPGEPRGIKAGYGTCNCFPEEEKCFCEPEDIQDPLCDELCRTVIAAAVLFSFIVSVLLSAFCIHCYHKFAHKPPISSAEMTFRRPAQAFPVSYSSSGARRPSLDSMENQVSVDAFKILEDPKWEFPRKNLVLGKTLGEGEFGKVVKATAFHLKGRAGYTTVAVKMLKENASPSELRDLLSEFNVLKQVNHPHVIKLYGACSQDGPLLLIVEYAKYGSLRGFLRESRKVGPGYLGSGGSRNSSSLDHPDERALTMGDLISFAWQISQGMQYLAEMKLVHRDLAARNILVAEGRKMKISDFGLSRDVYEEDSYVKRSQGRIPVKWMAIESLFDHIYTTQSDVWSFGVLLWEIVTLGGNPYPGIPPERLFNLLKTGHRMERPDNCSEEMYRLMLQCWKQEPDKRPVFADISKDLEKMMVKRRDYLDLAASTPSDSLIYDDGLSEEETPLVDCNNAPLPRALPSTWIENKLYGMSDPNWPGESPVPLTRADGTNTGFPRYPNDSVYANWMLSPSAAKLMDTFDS

SMILES: Cc1cnc2[nH]ccc2c1Cl
- IC50 [1]: 20.2 µM

SMILES: O=C1CC(c2ccccc2)=NN1
- IC50 [1]: 13 µM

SMILES: Cn1cc(-c2n[nH]c3ccc(Br)cc23)cn1
- IC50 [1]: 1.54 µM

SMILES: Clc1ccnc2[nH]ccc12
- IC50 [1]: 113 µM

SMILES: Nc1ccc(Br)c2ccncc12
- IC50 [1]: 57 µM

SMILES: COc1ccc2[nH]c(C)cc2c1
- IC50 [1]: 38 µM

SMILES: CN1CCC(CNc2ccc3[nH]nc(-c4cnn(C)c4)c3c2)CC1
- IC50 [1]: 1850 µM

SMILES: Nc1ccc2[nH]nc(Br)c2c1
- IC50 [1]: > 770 µM

SMILES: Cn1cc(-c2n[nH]c3cc(Br)ccc23)cn1
- IC50 [1]: 0.95 µM

SMILES: O=C(O)c1ccc2c(Br)n[nH]c2c1
- IC50 [1]: > 770 µM

SMILES: CC(C)Nc1ccc2c(-c3cnn(C)c3)n[nH]c2c1
- IC50 [1]: 46.6 µM

SMILES: Brc1cnn2cccnc12
- IC50 [1]: 330 µM

SMILES: Nc1cccc(-c2cccnc2)c1
- IC50 [1]: 363 µM

SMILES: FC(F)(F)c1cccc2[nH]ncc12
- IC50 [1]: 184 µM

SMILES: O=C(O)c1ccc2cn[nH]c2c1
- IC50 [1]: > 770 µM

SMILES: Nc1ccc2c(Br)n[nH]c2c1
- IC50 [1]: > 770 µM

The remaining lines, values ahead:

- GI50 (SK-OV-3): 0.496 µM
- IC50 [1]: 2.3 µM
- IC50 [2]: 2.02 µM
SMILES: N#Cc1cccc(-n2cc(-c3n[nH]c4cc(Cl)c(N[C@@H]5CCNC5)cc34)cn2)c1

- GI50 (SK-OV-3): 2.78 µM
- IC50 [1]: 3.2 µM
- IC50 [2]: 3.54 µM
SMILES: N#Cc1ccccc1-n1cc(-c2n[nH]c3cc(Cl)c(N[C@@H]4CCNC4)cc23)cn1

- Papp A→B [3]: 21.1 ×10⁻⁶ cm/s
- half-life [4]: 2.6 h
- logD [5]: 3.66
- microsomal CLint [6]: 15.4 µL/min/mg
- microsomal CLint [7]: 43.9 µL/min/mg
- solubility thermodynamic [8]: 4.58 µg/mL (≈ 10.7 µM)
- Cmax [9]: 258 ng/mL
- Papp B→A [10]: 17.4 ×10⁻⁶ cm/s
- Tmax [11]: 0.17 h
- IC50 [1]: 466 µM
- AUC(0-inf) [12]: 573 ng·h/mL
- efflux ratio [13]: 0.82
- IC50 [2]: 26.3 µM
SMILES: FC(F)(F)n1cc(-c2n[nH]c3cc(Cl)c(N[C@@H]4CCN(C5COC5)C4)cc23)cn1

- IC50 [1]: 1.7 µM
- IC50 [2]: 0.668 µM
SMILES: Clc1cc2[nH]nc(-c3cnn(-c4ccccc4)c3)c2cc1N[C@@H]1CCNC1

- IC50 [1]: 132 µM
SMILES: Cn1cc(-c2n[nH]c3ccc(NC4CCNC4)cc23)cn1 (centres undefined)

- IC50 [1]: 28.8 µM
SMILES: Cn1cc(-c2n[nH]c3cc(N)ccc23)cn1

- IC50 [1]: 219 µM
SMILES: Cn1cc(-c2n[nH]c3cc(Nc4ccccc4)ccc23)cn1

- GI50 (SK-OV-3): 1.02 µM
- Papp A→B [3]: 15.2 ×10⁻⁶ cm/s
- half-life [4]: 2.46 h
- logD [5]: 4.75
- microsomal CLint [6]: 129 µL/min/mg
- inhibition [14]: Active
- microsomal CLint [7]: 44.8 µL/min/mg
- inhibition [15]: Active
- solubility thermodynamic [8]: 1.84 µg/mL (≈ 3.96 µM)
- Cmax [9]: 460 ng/mL
- Papp B→A [10]: 8.41 ×10⁻⁶ cm/s
- Tmax [11]: 0.25 h
- inhibition [16]: Active
- IC50 [1]: 41.5 µM
- AUC(0-inf) [12]: 1620 ng·h/mL
- inhibition [17]: Dose-Dependent Effect
- inhibition [18]: Active
- efflux ratio [13]: 0.55
- IC50 [2]: 11.4 µM
SMILES: COc1ccc(-n2cc(-c3n[nH]c4cc(Cl)c(N[C@@H]5CCN(C6COC6)C5)cc34)cn2)cc1

- IC50 [1]: 239 µM
- IC50 [2]: > 50 µM
SMILES: Cn1cc(-c2n[nH]c3ccc(N[C@H]4CCNC4)cc23)cn1

- GI50 (SK-OV-3): 0.0529 µM
- IC50 [1]: 0.7 µM
- IC50 [2]: 0.88 µM
SMILES: N#Cc1ccc(-n2cc(-c3n[nH]c4cc(Cl)c(N[C@@H]5CCNC5)cc34)cn2)cc1
